Target: T1, human SLC6A19 and TMEM27 (Homo sapiens, UniProt Q695T7)
T1 construct: expressed in transfected cells
T1 sequence (Q695T7 1-634): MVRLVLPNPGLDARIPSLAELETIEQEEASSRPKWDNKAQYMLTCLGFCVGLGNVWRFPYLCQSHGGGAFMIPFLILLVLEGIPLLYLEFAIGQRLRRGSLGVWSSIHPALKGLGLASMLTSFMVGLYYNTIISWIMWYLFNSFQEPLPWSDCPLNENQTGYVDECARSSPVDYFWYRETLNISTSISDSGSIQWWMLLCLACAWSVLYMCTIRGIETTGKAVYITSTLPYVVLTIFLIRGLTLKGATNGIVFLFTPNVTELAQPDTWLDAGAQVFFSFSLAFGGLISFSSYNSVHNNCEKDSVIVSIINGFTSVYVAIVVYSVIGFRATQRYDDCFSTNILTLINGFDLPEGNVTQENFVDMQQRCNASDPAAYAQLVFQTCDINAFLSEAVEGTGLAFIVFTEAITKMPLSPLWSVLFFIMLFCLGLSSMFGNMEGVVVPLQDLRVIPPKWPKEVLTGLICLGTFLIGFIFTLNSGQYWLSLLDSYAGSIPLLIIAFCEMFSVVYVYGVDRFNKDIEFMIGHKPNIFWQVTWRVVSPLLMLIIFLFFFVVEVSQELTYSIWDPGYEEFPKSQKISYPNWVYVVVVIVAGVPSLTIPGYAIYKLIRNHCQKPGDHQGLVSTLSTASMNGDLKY
T1 sequence (Q9HBJ8 15-222 partner): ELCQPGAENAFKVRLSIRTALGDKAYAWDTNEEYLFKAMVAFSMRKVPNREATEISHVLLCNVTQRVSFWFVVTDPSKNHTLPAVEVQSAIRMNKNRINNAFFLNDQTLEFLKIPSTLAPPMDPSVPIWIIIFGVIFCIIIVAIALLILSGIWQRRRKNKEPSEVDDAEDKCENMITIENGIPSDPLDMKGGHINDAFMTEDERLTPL
Test: Radiolabelled (3H) leucine uptake in CHO cells with doxycycline-inducible expression of human SLC6A19 and TMEM27 (Example B-1)
Type: cell-based
Details: CHO cells with doxycycline-inducible expression of human SLC6A19 and TMEM27, read-out: SLC6A19_Radioligand Uptake Assay IC50
Outline: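 CHO cells were induced with doxycycline for 18 h at 37 °C, washed in HBSS, then exposed to compounds for 1 h: 8-point, 3-fold dilutions in duplicate, 0.5% DMSO final. Uptake measured by scintillation counting after 2 h shaking. Activity normalized with positive control as 0% and DMSO as 100%.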

Row | IC50 [µM] | SMILES
1 | 0.332 | C[C@@H]1CCN1C(=O)NCc1cc2cc(Cl)c(OCc3ccon3)cc2[nH]1 [Compound 363, (R)-N-((5-chloro-6-(isoxazol-3-ylmethoxy)-1H-indol-2-yl)methyl)-2-methylazetidine-1-carboxamide]
2 | 1.03 | O=C(NCc1cc2cc(Cl)c(OCc3cscn3)cc2[nH]1)C1CC12CCC2 (centres unmarked) [Compound 558, N-((5-chloro-6-(thiazol-4-ylmethoxy)-1H-indol-2-yl)methyl)spiro[2.3]hexane-1-carboxamide]

Target: T1, human SLC6A19 and TMEM27
Test: 13C6,15N-isoleucine uptake in CHO cells with doxycycline-inducible expression of human SLC6A19 and TMEM27, RapidFire mass spectrometry (Example B-2)
Type: cell-based
Details: read-out: SLC6A19_RapidFire Uptake Assay IC50
Method: Assay ready vials of CHO cells with doxycycline inducible expression of human SLC6A19 and TMEM27 were thawed, plated in T175 flasks containing DMEM/F12 media, 10% FBS, 1% Penicillin-Streptomycin, 1× UltraGlutamate, 1 mM Sodium Pyruvate, Sodium Bicarbonate (7.5 mL of 7.5% solution in 500 mL media final), 5 μg/mL Blasticidin, 150 μg/mL Hygromycin B Gold, and 500 μg/mL G418, and incubated (humidified, 37° C. with 5% CO2) for 48 hours. Media was then removed, flasks were washed with 20 mL of DPBS, and 5 mL of TrypLE™ Express was added to each flask to initiate cell dissociation. After 5 minutes, 10 mL of cell culture media was added to each flask and mixed. The cell suspension was collected and centrifuged for 5 minutes at 200×g. The supernatant was removed, and the pellet was resuspended in 10 mL of cell culture media. Resuspended cells were counted using a Vi-Cell. 30 μL/well (20,000 cells/well) of cell suspension was added to Poly-D-Lysine 384-well black/clear plates. Plates were incubated (humidified, 37° C. with 5% CO2) for 24 hours. To induce expression of human SLC6A19 and TMEM27, 10 μL of assay culture media containing 4 μg/mL doxycycline was added to each well. Assay plates were then incubated (humidified, 37° C. with 5% CO2) overnight. After incubation, the media was removed, and wells were washed 3 times with 40 μL of warmed DPBS. Next, 10 μL of warmed assay buffer (137 mM NaCl, 5 mM KCl, 1 mM CaCl2), 1 mM MgCl2, 10 mM HEPES, 10 mM glucose, pH 7.2) was added to each well. 10 μL/well of test compound or positive control compound to define 0% activity (i.e., 100% inhibition), was then added into each well. All compounds were plated in a duplicate 10-point dilution series that consisted of 2-fold dilutions. The plates were incubated (humidified, 37° C. with 5% C2) with compound for 20 minutes. Afterwards, 20 μL/well of 2 mM 13C6,15N-1-isoleucine was added to each well and plates were incubated again (humidified, 37° C. with 5% C02) for another 20 minutes. Assay buffer was then removed, and plates were washed. 70 μL/well of stop solution (75% acetonitrile, 25% HPLC grade water, 250 nM 1-leucine-1-13C (RapidFire standard)) was added to each well. The plates were sealed and then placed in a −20° C. freezer for 20 minutes. The plates were thawed at room temperature for 20 minutes and then centrifuge for 20 minutes at 3000 rpm. Using an ABSciex API4000 mass spectrometer, processed samples were loaded onto the graphitic carbon SPE-column. The time for aspiration, load/wash, elution and re-equilibration time was 600, 1500, 3000 and 500 milliseconds, respectively. Peak areas were calculated using RapidFire Integrator software.

Row | IC50 [µM] | SMILES
3 | 0.225 | CC1(C(=O)NCc2cc3cc(F)c(OCc4cocn4)cc3[nH]2)CC1 [Compound 7, N-((5-fluoro-6-(oxazol-4-ylmethoxy)-1H-indol-2-yl)methyl)-1-methylcyclopropane-1-carboxamide]
4 | 0.064 | CC1(C(=O)NCc2cc3cc(Cl)c(OCc4nccs4)cc3[nH]2)CC1 [Compound 40, N-((5-chloro-6-(thiazol-2-ylmethoxy)-1H-indol-2-yl)methyl)-1-methylcyclopropane-1-carboxamide]
5 | 0.13 | Cc1cc2cc(CNC(=O)C3(C)CC3)[nH]c2cc1OCc1ccon1 [Compound 10, N-((6-(isoxazol-3-ylmethoxy)-5-methyl-1H-indol-2-yl)methyl)-1-methylcyclopropane-1-carboxamide]
6 | 0.0434 | CC1(C(=O)NCc2cc3ccc(OCc4ccsn4)cc3[nH]2)CC1 [Compound 94, N-((6-(isothiazol-3-ylmethoxy)-1H-indol-2-yl)methyl)-1-methylcyclopropanecarboxamide]
7 | 0.427 | CC1(C(=O)NCc2cc3ccc(OCc4cccnc4)cc3[nH]2)CC1 [Compound 55, 1-methyl-N-((6-(pyridin-3-ylmethoxy)-1H-indol-2-yl)methyl)cyclopropane-1-carboxamide]
8 | 1.83 | CC1(C(=O)NCc2cc3ccc(NCc4ccccn4)cc3[nH]2)CC1 [Compound 4, 1-methyl-N-((6-((pyridin-2-ylmethyl)amino)-1H-indol-2-yl)methyl)cyclopropane-1-carboxamide]
9 | 0.155 | CC1(C(=O)NCc2cc3ccc(OCc4ccccn4)cc3[nH]2)CC1 [Compound 54, 1-methyl-N-((6-(pyridin-2-ylmethoxy)-1H-indol-2-yl)methyl)cyclopropane-1-carboxamide]
10 | 0.038 | Cc1cc(COc2cc3[nH]c(CNC(=O)C4(C)CC4)cc3cc2Cl)on1 [Compound 175, N-((5-chloro-6-((3-methylisoxazol-5-yl)methoxy)-1H-indol-2-yl)methyl)-1-methylcyclopropane-1-carboxamide]
11 | 0.528 | Cc1ncc(COc2cc3[nH]c(CNC(=O)C4(C)CC4)cc3cc2Cl)s1 [Compound 176, N-((5-chloro-6-((2-methylthiazol-5-yl)methoxy)-1H-indol-2-yl)methyl)-1-methylcyclopropane-1-carboxamide]
12 | 0.992 | CN(Cc1ccccc1)c1ccc2cc(CNC(=O)C3(C)CC3)[nH]c2c1 [Compound 2, N-((6-(benzyl(methyl)amino)-1H-indol-2-yl)methyl)-1-methylcyclopropane-1-carboxamide]

Second part, the molecule before the results:

Row | SMILES | IC50 [µM]
13 | O=C(NCc1cc2cc(Cl)c(OCc3ccon3)cc2[nH]1)N1CCCC1 [Compound 112, N-((5-chloro-6-(isoxazol-3-ylmethoxy)-1H-indol-2-yl)methyl)pyrrolidine-1-carboxamide] | 0.193
14 | CNC(=O)COc1ccc2cc(CNC(=O)C3(C)CC3)[nH]c2c1 [Compound 162, 1-methyl-N-((6-(2-(methylamino)-2-oxoethoxy)-1H-indol-2-yl)methyl)cyclopropane-1-carboxamide] | 16.3
15 | CC1(C(=O)NCc2cc3ccc(CCc4ccon4)cc3[nH]2)CC1 [Compound 75, N-((6-(2-(isoxazol-3-yl)ethyl)-1H-indol-2-yl)methyl)-1-methylcyclopropanecarboxamide] | 0.464
16 | Cc1c(CNC(=O)C2(C)CC2)[nH]c2cc(OCc3ccon3)ccc12 [Compound 155, N-((6-(isoxazol-3-ylmethoxy)-3-methyl-1H-indol-2-yl)methyl)-1-methylcyclopropane-1-carboxamide] | 0.311
17 | CC1(C(=O)NCc2cc3ccc(OCc4ccccc4)cc3[nH]2)CC1 [Compound 5, N-((6-(benzyloxy)-1H-indol-2-yl)methyl)-1-methylcyclopropanecarboxamide] | 0.053
18 | CC1(C(=O)NCc2cc3ccc(OCC4CCOC4)cc3[nH]2)CC1 (centres unmarked) [Compound 188, 1-methyl-N-((6-((tetrahydrofuran-3-yl)methoxy)-1H-indol-2-yl)methyl)cyclopropane-1-carboxamide] | 4.45
19 | Cc1ccc(COc2cc3[nH]c(CNC(=O)C4(C)CC4)cc3cc2Cl)cn1 [Compound 37, N-((5-chloro-6-((6-methylpyridin-3-yl)methoxy)-1H-indol-2-yl)methyl)-1-methylcyclopropane-1-carboxamide] | 0.625
20 | Cc1nnc(COc2ccc3cc(CNC(=O)C4(C)CC4)[nH]c3c2)o1 [Compound 167, 1-methyl-N-((6-((5-methyl-1,3,4-oxadiazol-2-yl)methoxy)-1H-indol-2-yl)methyl)cyclopropane-1-carboxamide] | 7.5
21 | CC1(C(=O)NCc2cc3ccc(OCc4nccs4)cc3[nH]2)CC1 [Compound 43, 1-methyl-N-((6-(thiazol-2-ylmethoxy)-1H-indol-2-yl)methyl)cyclopropane-1-carboxamide] | 0.192
22 | Cc1cc(Cc2ccc3cc(CNC(=O)C4(C)CC4)[nH]c3c2)no1 [Compound 160, 1-methyl-N-((6-((5-methylisoxazol-3-yl)methyl)-1H-indol-2-yl)methyl)cyclopropanecarboxamide] | > 50
23 | CNC(=O)NCc1cc2ccc(OCc3cocn3)cc2[nH]1 [Compound 108, 1-methyl-3-((6-(oxazol-4-ylmethoxy)-1H-indol-2-yl)methyl)urea] | 5.57
24 | CC1(C(=O)NCc2cc3ccc(OCc4ncccn4)cc3[nH]2)CC1 [Compound 51, 1-methyl-N-((6-(pyrimidin-2-ylmethoxy)-1H-indol-2-yl)methyl)cyclopropane-1-carboxamide] | 4.39
25 | Cc1nnc(COc2ccc3cc(CNC(=O)C4(C)CC4)[nH]c3c2)s1 [Compound 165, 1-methyl-N-((6-((5-methyl-1,3,4-thiadiazol-2-yl)methoxy)-1H-indol-2-yl)methyl)cyclopropane-1-carboxamide] | 2.18
26 | Cc1ncc(COc2ccc3cc(CNC(=O)C4(C)CC4)[nH]c3c2)s1 [Compound 178, 1-methyl-N-((6-((2-methylthiazol-5-yl)methoxy)-1H-indol-2-yl)methyl)cyclopropane-1-carboxamide] | 0.511

Source: patent US20240199546A1, “INHIBITORS OF SOLUTE CARRIER FAMILY 6A MEMBER 19 (SLC6A19) AND METHODS OF USE THEREOF” (Maze Therapeutics, Inc., priority 2022, published 2024)
